In patent publication US6124115A, “Production and use of isolated type 5 17β-hydroxysteroid dehydrogenase” (Endorecherche Inc., priority 1995, dated 2000):

Molecular target: T1, human type 5 17β-HSD (Homo sapiens, UniProt P42330)
T1 construct: encodes a protein having 323 amino acids with a calculated molecular weight of 36,844 daltons; expressed in transfected cells; host or cells: human embryonal kidney 293 cells (ATCC CRL 1573), transient transfection with pCMV vector
T1 sequence (P42330 1-323 H5Q): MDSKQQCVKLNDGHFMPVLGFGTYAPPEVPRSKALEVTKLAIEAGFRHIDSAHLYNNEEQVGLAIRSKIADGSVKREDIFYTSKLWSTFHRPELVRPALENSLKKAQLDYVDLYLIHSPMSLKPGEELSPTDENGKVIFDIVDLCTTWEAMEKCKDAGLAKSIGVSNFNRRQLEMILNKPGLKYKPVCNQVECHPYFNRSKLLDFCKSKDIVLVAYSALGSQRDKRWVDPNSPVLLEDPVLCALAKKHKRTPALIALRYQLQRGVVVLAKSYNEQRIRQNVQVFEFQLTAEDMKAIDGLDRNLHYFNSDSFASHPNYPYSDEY
Test: Assay of enzymatic activity (substrate specificity) in 293 cells transfected with human type 5 17β-HSD
Assay type: cell-based
Settings: 0.1 μM 14C-labeled substrate, 1 hour incubation, transfected embryonal kidney (293) cells, FIG. 1A
Description: The concentration of each substrate was 0.1 μM. […] The substrates, progesterone (P) and Δ^4 -dione, were added at a concentration of 0.1 μM;
The vectors were transfected using the calcium phosphate procedure described by Kingston, R. E., In: Current Protocols in Molecular Biology, Ausubel et al. eds., pp. 9.1.1-9.1.9, John Wiley & Sons, N.Y. (1987) and used 1 to 10 μg of recombinant plasmid DNA per 10^6 cells. The total amount of DNA is kept at 10 μg of plasmid DNA per 10^6 cells by completing with pCMV plasmid without insert. The cells were initially plated at 10^4 cells/cm^2 in Falcon® culture flasks and grown in Dulbecco's modified Eagle's medium containing 10% (vol/vol) fetal bovine serum (hyclone, Logan, Utah) under a humidified atmosphere of air/CO^2 (95%/5%) at 37° C. and supplemented with 2 mM L-glutamine, 1 mM sodium pyruvate, 100 IU penicillin/ml, and 100 μbg streptomycin sulfate/ml.
See also Lachance et al., J. Biol. Chem., 265:20469-20475 (1990). […] After incubation for 1 hour, the steroids were extracted twice with 2 ml of ether. The organic phase was pooled and evaporated to dryness. The steroids were solubilized in 50 μl of dichloromethane, applied to a Silica gel 60 thin layer chromatography (TLC) plate (Merck, Darmstad, Germany) and then separated by migration in the toluene-acetone (4:1) solvent system (Luu-The, V. et al., J. Invest. Dennatol., 102:221-226 (1994) which is herein incorporated by reference).
As described above, the enzymatic activity of the type 5 17β-HSD was evaluated by transfecting 293 cells with vectors which included the gene encoding human type 5 17β-HSD.

CC(=O)[C@H]1CC[C@H]2[C@@H]3CCC4=CC(=O)CC[C@]4(C)[C@H]3CC[C@]12C [progesterone]
reductive 20α-HSD activity (progesterone transformed to 20α-OH-P): high

C[C@]12CCC(=O)C=C1CC[C@@H]1[C@@H]2CC[C@]2(C)C(=O)CC[C@@H]12 [Δ^4dione, 4-androstene-3,17-dione]
17β-HSD activity (Δ4-dione converted to testosterone): high

C[C@]12CC[C@@H]3c4ccc(O)cc4CC[C@H]3[C@@H]1CC[C@@H]2O [E2, estradiol]
ability of the enzyme to transform E1 and E2: negligible

C[C@]12CCC(=O)C[C@@H]1CC[C@@H]1[C@@H]2CC[C@]2(C)[C@@H](O)CC[C@@H]12 [DHT, dihydrotestosterone]
3α-HSD activity (transformation of DHT to 5α-androstane-3α,17β-diol): negligible
